# Reference: US20030138773A1, “METHODS OF TRANSCRIPTIONALLY MODULATING GENE EXPRESSION” (priority 1989, published 2003)
# Key:
# [1] = system: mouse mammary tumor virus (MMTV) promoter; assay: MMTV promoter-luciferase reporter, cell clone M10 (high-throughput screen); assay type: cell-based; conditions: for stimulation of the MMTV promoter in cell clone M10 by steroids: FIG. 43
# Description: NIH/3T3 fibroblast cells (ATCC number CRL 1658) were used for transfection of plasmids containing the mouse mammary tumor virus (MMTV) promoter linked to firefly luciferase coding sequences (see below). Cells were propagated in Dulbecco's modified Eagle's medium (DMEM) obtained from Gibco, Grand Island, N.Y. and supplemented with 10% FCS. For high-throughput (HTP) screening, transfected NIH/3T3 clones were transferred to serum free defined medium consisting of Iscove's modified Eagle's medium (IMEM) and Ham's F12 medium (1:1) supplemented with growth factors, hormones and nutrients as described previously (43).
# The firefly luciferase gene was removed from the plant expression plasmid pDO432 (33) (FIG. 1) as a 1.9 kb BamHI fragment and cloned into the BamHI site of pSVL (Pharmacia, Piscataway, N.J.), a mammalian expression vector containing the SV40 promoter. The resulting plasmid (pSVLuci; FIG. 2) was digested with XhoI and SalI to produce a 2.4 kb fragment containing the luciferase coding sequences and the SV40 late polyadenylation site. This fragment was inserted into the XhoI site of pMSG (Pharmacia, Piscataway, N.J.), a eukaryotic expression vector containing the MMTV promoter. The resulting MMTV promoter-luciferase fusion plasmid (pMLuci; FIG. 3) was used to transfect NIH/3T3 cells as described below (section El). Similar constructs can be made using luciferase vectors from Clontech (Palo Alto, Calif.).
# pMluci (FIG. 3) and pSV2Neo, an antibiotic resistance plasmid (34), were co-transfected into NIH/3T3 mouse fibroblast cells using the calcium phosphate precipitation method (15) with a commercially available kit (Pharmacia, Piscataway N.J.). […] Once sufficient cell numbers were obtained, clones were analyzed based on several criteria: constitutive luciferase production, induction of luciferase expression by dexamethasone (1 μM, Sigma, St. Louis, Mo.), satisfactory attachment to microtiter plates used in the high-throughput screen (see section G) and acceptable standard deviation in multiple luciferase expression assays (see below for assay protocol). […]
# [2] = system: G-CSF mRNA; assay: Northern blot of endogenous G-CSF mRNA in 5637 cells; assay type: cell-based, human; conditions: G-CSF-specific probe, compared to solvent DMSO, FIG. 46
# Experimental: Total cellular RNA was isolated from the G21 cell clone or from untransfected 5637 cells following incubation for 6 hours with various transcriptionally modulating chemicals identified in the high-throughput screen. Cells were grown in serum free medium as described above. Total cellular RNA was isolated using the RNAZol method (CINNA/BIOTECX, Friendswood, Tex., Laboratories International, Inc.). Cells were resuspended and lysed with RNAZol solution (1.5 ml/9 cm petri dish) and the RNA was solubilized by passing the lysate a few times through a pipette. Chloroform was added to the homogenate (0.1 ml/1 ml), and samples were shaken for 15 seconds followed by a 5 minute incubation on ice. After centrifuging for 10 minutes, the upper phase was collected and an equal volume of isopropanol was added. Samples were incubated for 45 minutes at −20° C., and the RNA was pelleted for 15 minutes at 12,000×g at 4° C. The RNA pellet was then washed with 70% ethanol and dried briefly under vacuum.
# Total cellular RNA was isolated from 5637 cells following incubation with chemicals as described above and electrophoresed in a 1% Agarose-1M Formaldehyde gel. […] Bands were excised and counted in a liquid scintillation counter (LKB, Gaithersburg, Md.), and counts obtained with the G-CSF specific probe were normalized relative to the counts obtained with the B-Actin specific probe.
# [3] = system: human G-CSF promoter; assay: G-CSF promoter-luciferase reporter, cell clone G21 (high-throughput screen); assay type: cell-based; conditions: 5 μg/ml; FIG. 42
# Description: A human bladder carcinoma cell line (U5637, ATCC number HTB 9) was used for transfection of plasmids containing the human Granulocyte-Colony Stimulating Factor (G-CSF) promoter (see below) and was maintained in RPMI medium supplemented with 10% FCS. For HTP screening, transfected 5637 clones were transferred to a serum free defined medium identical to that used for the NIH/3T3 clones.
# The sequences of OL-1, OL-2 and OL-5 recognize the G-CSF promoter region, OL-4 recognizes the first intron/exon junction and OL-3 recognizes sequences within the second exon (32). […]
# (§1) To assay for luciferase expression in transient expression assays in the various transfected clones, cells were incubated with various transcriptional inducers in serum free defined media, washed 3 times with Dulbecco's phosphate-buffered saline (D-PBS, Gibco) and lysed in Lysis Buffer 1 (50 mM Tris acetate pH 7.9, 1 mM EGTA, 10 mM magnesium acetate, 1 mg/ml bovine serum albumin [BSA], 0.5% Brij 58, 2 mM ATP, 100 mM dithiothreitol [DTT]). […] Samples were counted individually in an LKB (Gaithersburg, Md.) scintillation counter on a setting which allows measurement of individual photons by switching off the coincidence circuit. […]
# [4] = system: human growth hormone promoter; assay: hGH promoter-luciferase reporter, cell clone 532 (high-throughput screen); assay type: cell-based; conditions: 100 nM; FIG. 42
# Description: A rat pituitary cell line, designated GC, (4, 25) was used for transfection of plasmids containing the human growth hormone promoter (see below) and was maintained in DMEM and Ham's F12 medium (1:1), supplemented with 12.5% FCS. For HTP screening, transfected GC clones were transferred to serum free defined medium consisting of DMEM and Ham's F12 medium (1:1) supplemented with growth factors, hormones and nutrients as described previously (17, 5).
# The SalI-XhoI fragment of pSVLuci (FIG. 2) containing the luciferase coding sequences and the SV40 late polyadenylation site was inserted into pUC 8 (Biorad, Richmond, Calif.), which had been linearized by a SmaI/HinCII digestion and ligated to XhoI linkers (New England Biolabs, Beverly, Mass.). […]
# as §1
compound,measurement,setting,value
C[C@]12CCC(=O)C=C1CC[C@@H]1[C@@H]2[C@@H](O)C[C@]2(C=O)[C@@H](C(=O)CO)CC[C@@H]12 [aldosterone],stimulation of the MMTV promoter in cell clone M10 by steroids,[1],stimulates
C[C@@H]1C[C@H]2[C@@H]3CCC4=CC(=O)C=C[C@]4(C)[C@@]3(F)[C@@H](O)C[C@]2(C)[C@@]1(O)C(=O)CO [dexamethasone],"stimulation of luciferase expression, clone M10","[1]; 1 μM, FIG. 42",11.6 fold
CC(=O)[C@H]1CC[C@H]2[C@@H]3CCC4=CC(=O)CC[C@]4(C)[C@H]3CC[C@]12C [progesterone],stimulation of the MMTV promoter in cell clone M10 by steroids,[1],did not
IFN-gamma: a proteinaceous positive regulator,production of endogenous G-CSF mRNA,[2],increased
lipopolysaccharide,"stimulation of luciferase expression, clone G21",[3],5.7 fold
"rat growth hormone releasing factor: known inducer of hGH expression (Bachem) (HADAIFTSSYRRILGQLYARKLLHEIMNRQQGERNQEQRSRFN; Somatoliberin; UniProt P09916 31-73, looked up)","stimulation of luciferase expression, clone 532",[4],2.2 fold
